{"source": "paper PMC2901233", "about": "(Nuclear medicine and biology, 2010)", "key": {"[1]": {"test": "reversed phase HPLC analysis of components of plasma radioactivity", "type": "in vivo, baboon (Papio anubis)"}, "5-HT transporter": {"tested_on": "5-HT transporter", "conditions": "cited from earlier work"}, "[2]": {"type": "in vivo, baboon (Papio anubis)"}, "serotonin transporters": {"tested_on": "serotonin transporters", "test": "SPECT binding potential", "type": "in vivo, baboon (Papio anubis)"}, "dopamine transporter": {"tested_on": "dopamine transporter", "conditions": "cited from earlier work"}, "[3]": {"test": "plasma protein binding by the ultrafiltration method", "type": "in vitro ADME, baboon (Papio anubis)"}, "[4]": {"conditions": "3 min after injection, arterial plasma"}, "[5]": {"conditions": "5 min after injection, arterial plasma"}, "[6]": {"conditions": "10 min after injection, arterial plasma"}, "[7]": {"conditions": "30 min after injection, arterial plasma"}, "[8]": {"conditions": "60 min after injection, arterial plasma"}, "[9]": {"conditions": "120 min after injection, arterial plasma"}, "[10]": {"conditions": "180 min after injection, arterial plasma"}, "[11]": {"conditions": "360 min after injection, arterial plasma"}, "[12]": {"conditions": "MRTM2 analysis, bolus only study, first animal"}, "[13]": {"conditions": "average of equilibrium scans prior to displacement, same animal as MRTM2"}, "[14]": {"conditions": "0.5 mg/kg IV at 8 h post-radiotracer, n=2"}}, "note": "Several values for one entry are separate records, joined by “and”; a condition that tells them apart may be missing. Equal entries are not always repeated. Entries after “also recorded” stand apart in the source; their conditions may differ.", "data": [{"compound": "COC(=O)C1C2CCC(CC1c1ccc(/C=C\\I)cc1)N2", "note": "(stereo not drawn) [[^123I]p ZIENT, 2β-carbomethoxy-3β-(4′-((Z)-2-iodoethenyl)phenyl)nortropane]", "values": [{"measurement": "Relative proportion of plasma radioactivity, Parent Compound", "setting": "[1]; 1 min after injection, arterial plasma", "value": 69, "unit": "%"}, {"measurement": "Relative proportion of plasma radioactivity, Parent Compound", "setting": "[1]; [4]", "value": 69, "unit": "%"}, {"measurement": "Relative proportion of plasma radioactivity, Polar Fraction (metabolite)", "setting": "[1]; [4]", "value": 5, "unit": "%"}, {"measurement": "combined two polar metabolite fractions as percent of total plasma activity", "setting": "[1]; 3 min post-injection", "value": 31, "unit": "%"}, {"measurement": "Relative proportion of plasma radioactivity, Parent Compound", "setting": "[1]; [5]", "value": 65, "unit": "%"}, {"measurement": "Relative proportion of plasma radioactivity, Polar Fraction (metabolite)", "setting": "[1]; [5]", "value": 10, "unit": "%"}, {"measurement": "Relative proportion of plasma radioactivity, Parent Compound", "setting": "[1]; [6]", "value": 43, "unit": "%"}, {"measurement": "Relative proportion of plasma radioactivity, Polar Fraction (metabolite)", "setting": "[1]; [6]", "value": 41, "unit": "%"}, {"measurement": "Relative proportion of plasma radioactivity, Parent Compound", "setting": "[1]; [7]", "value": 16, "unit": "%"}, {"measurement": "Relative proportion of plasma radioactivity, Polar Fraction (metabolite)", "setting": "[1]; [7]", "value": 78, "unit": "%"}, {"measurement": "Relative proportion of plasma radioactivity, Parent Compound", "setting": "[1]; [8]", "value": 10, "unit": "%"}, {"measurement": "Relative proportion of plasma radioactivity, Polar Fraction (metabolite)", "setting": "[1]; [8]", "value": 87, "unit": "%"}, {"measurement": "Relative proportion of plasma radioactivity, Parent Compound", "setting": "[1]; [9]", "value": 5, "unit": "%"}, {"measurement": "Relative proportion of plasma radioactivity, Polar Fraction (metabolite)", "setting": "[1]; [9]", "value": 94, "unit": "%"}, {"measurement": "Relative proportion of plasma radioactivity, Parent Compound", "setting": "[1]; [10]", "value": 4, "unit": "%"}, {"measurement": "Relative proportion of plasma radioactivity, Polar Fraction (metabolite)", "setting": "[1]; [10]", "value": 95, "unit": "%"}, {"measurement": "combined two polar metabolite fractions as percent of total plasma activity", "setting": "[1]; 180 min post-injection", "value": 96, "unit": "%"}, {"measurement": "Relative proportion of plasma radioactivity, Parent Compound", "setting": "[1]; [11]", "value": 3, "unit": "%"}, {"measurement": "Relative proportion of plasma radioactivity, Polar Fraction (metabolite)", "setting": "[1]; [11]", "value": 96, "unit": "%"}, {"measurement": "time of peak level of radioactivity in arterial plasma", "setting": "[1]; after bolus injection", "value": "4 to 7", "unit": "min"}, {"measurement": "time of peak of the transient fraction", "setting": "[1]; arterial plasma", "value": "3 to 5", "unit": "min"}, {"measurement": "unmetabolized parent as proportion of plasma radioactivity", "setting": "[1]; at the time of peak level of radioactivity in arterial plasma (4-7 min)", "value": 69, "unit": "%"}, {"measurement": "lipophilic radiolabeled metabolites entering the brain", "setting": "[1]; baboon arterial plasma, HPLC", "value": "no detection; also recorded: detected no radiometabolites that are capable of entering the brain"}, {"measurement": "transient fraction at its peak, proportion of plasma radioactivity", "setting": "[1]; peak at 3-5 min", "value": 26, "unit": "%"}, {"measurement": "SERT binding affinity", "setting": "5-HT transporter", "value": "~0.05", "unit": "nM"}, {"measurement": "time of peak whole brain uptake", "setting": "[2]; bolus IV injection", "value": 74, "unit": "min"}, {"measurement": "whole brain uptake, percent of injected dose", "setting": "[2]; bolus IV injection, at peak (74 min)", "value": 2.3, "unit": "%"}, {"measurement": "time at which equilibrium was established", "setting": "[2]; bolus to constant infusion at a ratio of 9.0 h", "value": "4 to 8", "unit": "h"}, {"measurement": "change per hour at equilibrium", "setting": "[2]; bolus to constant infusion, between 4-8 h", "value": "< 5", "unit": "%"}, {"measurement": "BPND basal ganglia", "setting": "serotonin transporters; [12]", "value": 0.97}, {"measurement": "BPND brainstem", "setting": "serotonin transporters; [12]", "value": 1.34}, {"measurement": "BPND diencephalon", "setting": "serotonin transporters; [12]", "value": 1.48}, {"measurement": "BPND hippocampus", "setting": "serotonin transporters; [12]", "value": 0.49}, {"measurement": "BPND temporal cortex", "setting": "serotonin transporters; [12]", "value": 0.39}, {"measurement": "BPND basal ganglia", "setting": "serotonin transporters; [13]", "value": 0.81}, {"measurement": "BPND brainstem", "setting": "serotonin transporters; [13]", "value": 1.34}, {"measurement": "BPND diencephalon", "setting": "serotonin transporters; [13]", "value": 1.04}, {"measurement": "BPND hippocampus", "setting": "serotonin transporters; [13]", "value": 0.82}, {"measurement": "BPND temporal cortex", "setting": "serotonin transporters; [13]", "value": 0.22}, {"measurement": "BPND basal ganglia", "setting": "serotonin transporters; second animal", "value": 2.9}, {"measurement": "BPND brainstem", "setting": "serotonin transporters; second animal", "value": 4.32}, {"measurement": "BPND diencephalon", "setting": "serotonin transporters; second animal", "value": 3.83}, {"measurement": "BPND hippocampus", "setting": "serotonin transporters; second animal", "value": 2.07}, {"measurement": "BPND temporal cortex", "setting": "serotonin transporters; second animal", "value": 1.28}, {"measurement": "specificity for binding to the 5-HT transporter compared to the dopamine transporter", "setting": "dopamine transporter", "value": 100, "unit": "fold"}, {"measurement": "protein bound in plasma", "setting": "[3]; first of the two baboons", "value": "93.1± 0.3% and 93%"}, {"measurement": "protein bound in plasma", "setting": "[3]; second of the two baboons", "value": "89.8 ± 0.7% and 90%"}]}, {"compound": "COC(=O)C(c1ccccc1)C1CCCCN1", "note": "(centres unmarked) [Methylphenidate, methylphenidate]", "values": [{"measurement": "Percent Displacement in [123I]p ZIENT (BPND), Basal Ganglia", "setting": "serotonin transporter; [14]", "value": -4, "unit": "%"}, {"measurement": "Percent Displacement in [123I]p ZIENT (BPND), Brainstem", "setting": "serotonin transporter; [14]", "value": -11, "unit": "%"}, {"measurement": "Percent Displacement in [123I]p ZIENT (BPND), Diencephalon", "setting": "serotonin transporter; [14]", "value": -5, "unit": "%"}, {"measurement": "Percent Displacement in [123I]p ZIENT (BPND), Hippocampus", "setting": "serotonin transporter; [14]", "value": -8, "unit": "%"}, {"measurement": "Percent Displacement in [123I]p ZIENT (BPND), Temporal Cortex", "setting": "serotonin transporter; [14]", "value": -1, "unit": "%"}, {"measurement": "displacement of [123I]p ZIENT in all regions studied, in words", "setting": "serotonin transporter; IV at 8 h post-radiotracer, fluoxetine 1.5, 2.5, citalopram 5, methylphenidate 0.5, nisoxetine 1 mg/kg", "value": "no significant changes"}]}]}
